Test results from ChEMBL document CHEMBL3507680, “University of Dundee, Gates Library screen for HepG2 cell viability”.

Test: Human HepG2 cell viability assay in 384 well format
Type: toxicity, cell-based
Design: dose 125 nL, time 70.5 hour; cytotoxicity at 70.5 h: concentration not given beside the values
Settings: HepG2 cells, read-out: Inhibition

| Compound | cytotoxicity at 70.5 h [%] |
| --- | --- |
| CCn1ncnc1C(C)NC(=O)C1CCN(Cc2ccco2)CC1 (configuration not stated) | -0.537 |
| O=C1CCCN1CCC1CCN(C2CCC3(CCNCC3)CC2)CC1 | -6.34 |
| CCC[C@H]1CN(c2nc(CO)cs2)C[C@@H]1NC(=O)C1(COC)CC1 | 4.28 |
| CC(C)c1noc(CN(C)C(=O)c2ccccc2-c2nc[nH]n2)n1 | 6.97 |
| CN(Cc1noc2c1CCCC2)C(=O)Cn1cnc2ccccc2c1=O | -9.78 |
| Cc1cc(C)c(C(=O)N2CCC3(CCCNC3)C2)cc1C (configuration not stated) | 25.6 |
| c1cncc(-n2cnnc2CCCN2CCOCC2)c1 | 1.35 |
| CCOCCc1nc(Cc2ccccc2)n[nH]1 | -14.4 |
| CC(C)=CCC1(CO)CCCN(S(=O)(=O)N2CCCC2)C1 (configuration not stated) | -14.7 |
| CC(C)N1CC(NC(=O)c2ccc(Cl)s2)CC1=O (configuration not stated) | -6.6 |
| CCN1CCCC(c2c(-c3ccccc3)ncn2CCc2c[nH]cn2)C1 (configuration not stated) | -11.9 |
| O=S1(=O)CCC(n2nc(COc3ccccc3)nc2-c2cnccn2)C1 (configuration not stated) | -1.94 |
| CCCOc1ccccc1NCC(=O)Nc1ccc(CC)cc1 | -6.36 |
| COc1ccc(C(=O)N2C[C@@H](C(=O)O)[C@H](c3cccc(F)c3)C2)c(O)c1 | 5.73 |
| Cc1ccc(CN2CC3(CCNCC3)CCC2=O)c(F)c1F | -0.751 |
| CN(C)CC1(O)CCN(C(=O)c2cnc(-c3ccccn3)nc2)C1 (configuration not stated) | 15.3 |
| O=C(CCCn1cncn1)N1CCC2(CCCNC2=O)C1 (configuration not stated) | 0.299 |
| CCCn1ccnc1CN1C[C@@H](NC(C)=O)[C@H](c2ccc(C)cc2)C1 | -0.633 |
| Cc1cccnc1CN(C)c1ncnc2[nH]ccc12 | -6.05 |
| Cc1cc(S(=O)(=O)NCC2CNCCOC2)c(C)cc1Cl (configuration not stated) | 1.99 |
| O=C(CN1CC(c2ccccc2)CC1=O)N1CCN(c2nccs2)CC1 (configuration not stated) | -6.92 |
| c1ccc2sc(N3CCCN(c4ncnc5c4CCNC5)CC3)nc2c1 | -7.26 |
| CCc1cc(N2CCC(NC3CCOCC3)CC2)nc(N(C)C)n1 | 25.7 |

| Compound | cytotoxicity at 70.5 h [%] |
| --- | --- |
| Cc1ccnc(N2CCC(=O)N(Cc3ccc(F)cc3)C(C(C)C)C2)n1 (configuration not stated) | -9.2 |
| COc1cccc(OCC2CCCN(c3cc(C(N)=O)ccn3)C2)c1 (configuration not stated) | -11.8 |
| CC(C)c1nc(CN(C)C(=O)c2cn3ccsc3n2)cs1 | 2.2 |
| O=C1N(Cc2ccc(F)c(F)c2)CCCC1(O)CNCc1ccccn1 (configuration not stated) | -4.31 |
| N#Cc1ccccc1C(=O)N1C[C@H]2CC[C@@H]1CN(Cc1ccccc1)C2 | -13.1 |
| CC(C)=CCN1CCN(C(=O)COc2ccccc2)[C@H]2CS(=O)(=O)C[C@H]21 | 1.61 |
| Cn1ncc2c(NCC(=O)N3CCNCC3)nc(C(C)(C)C)nc21 | -1.24 |
| Cc1ccc(CN2CCC(n3cc(C(O)c4ccccc4)nn3)CC2)o1 (configuration not stated) | -5.94 |
| Cc1[nH]ccc1C(=O)N1CCC2(CC1)c1nc[nH]c1CCN2CC(C)C | -8.19 |
| O=C(CCn1cc(Cl)cn1)N1CCN(CC2CC2)[C@@H]2CS(=O)(=O)C[C@@H]21 | -10.2 |
| COCCN1CC2(CCCN(C(=O)NCCc3cccs3)C2)CCC1=O (configuration not stated) | 4.85 |
| Cc1cc(C(=O)N2CCCC(c3nccn3Cc3cscn3)C2)on1 (configuration not stated) | -6.42 |
| O=C(c1ccccn1)N1C[C@@H]2CC[C@H](C1)N(C(=O)CCC(F)(F)F)C2 | -3.18 |
| Cc1cccc(CN2CCC(c3nccn3CC(N)=O)CC2)n1 | 22.7 |
| Cc1nsc(NC(=O)NC2CCN(C)CC2)n1 | -11.7 |
| COc1cnc(N2C[C@@H](CN3CCOCC3)[C@@H](CO)C2)nc1 | -5.35 |
| O=C1CCCCCN1Cc1ncnn1Cc1c(F)cccc1Cl | -5.62 |
| CCN1CC(C(=O)N2CC(Oc3ccccc3F)C2)CC1=O (configuration not stated) | -1.35 |
| COc1ccc(F)cc1C(=O)N1CCC2(CCC(=O)N(C(C)C)C2)CC1 | -5.66 |
| CCc1nc(N)nc(NCc2cnn3cccnc23)c1C | -0.745 |
| CC(=O)N1CCN(C[C@H]2CC[C@@H](Cc3ccc4c(c3)OCO4)O2)CC1 | -1.65 |
| Cc1cccnc1CC(C)N(C)C(=O)c1ccoc1C (configuration not stated) | 5.46 |
| Cc1noc(C)c1CN1C(=O)[C@H]2CC[C@@H]1CN(C(=O)c1cscn1)C2 | -2.09 |

| Compound | cytotoxicity at 70.5 h [%] |
| --- | --- |
| CSc1nccc(N2CCC3(CCCN(Cc4cccc(C)c4)C3)C2)n1 (configuration not stated) | -0.65 |
| Cc1cc(=O)[nH]c(-c2cccc(CN3CCCN4CCCC4C3)c2)n1 (configuration not stated) | -5.83 |
| CCC(C(=O)NCc1csc(-c2ncccn2)n1)n1cccn1 (configuration not stated) | 13 |
| COc1ncc(C(=O)N2CCC3(CC2)C(=O)Nc2ccccc23)cn1 | 0.417 |
| CCS(=O)(=O)CCNC(=O)[C@@]12CNC[C@@H]1CN(C1CCCC1)C2 | -0.64 |
| O=c1[nH]nc(CCCN2CCOCC2)n1-c1ccc(F)cc1F | 24.5 |
| CC[C@@]1(O)CCN(CCCOc2ccc(C(N)=O)cc2)C[C@H]1O | -4.97 |
| COc1ccc(C(=O)N2C[C@@H](C)[C@@](C)(O)C2)cc1N1CCOCC1 | 2.73 |
| CN1CC2(CCN(CCCOCc3ccccc3)CC2)OC1=O | -9.74 |
| N[C@H]1CN(C(=O)Cc2cc(F)cc(Cl)c2)C[C@@H]1C1CC1 | -3.32 |
| NC(=O)CNC(=O)c1cc(Cn2cnc3ccccc32)[nH]n1 | -5.83 |
| Cc1csc(CCNC(=O)C2CCN(CC(N)=O)CC2)n1 | 8.97 |
| CC(C)c1nccn1CCCNC(=O)c1ccc(-c2cccnc2)nc1 | -9.12 |
| CN1CCN2CCN(C(=O)c3cc4ncc(CCO)cn4n3)CC2C1 (configuration not stated) | -15.2 |
| CCNC(=O)C1CCN(c2cc(-c3ccccc3)nc3cc(C)nn23)C1 (configuration not stated) | -2.31 |
| Cc1ccc(OCc2occc2C(=O)N2CCOC(C(=O)O)C2)cc1 (configuration not stated) | 11.5 |
| O[C@@H]1CN(c2nc3ccccc3s2)CC[C@H]1c1ccc2c(c1)OCO2 | -3.71 |
| CN(Cc1cn(CC2CCNCC2)nn1)CC1CCCCO1 (configuration not stated) | -8.15 |
| CCc1nc(N2CCC3(CCC(=O)N(CCCO)C3)CC2)no1 | 9.45 |
| C1CCC(c2nn3c(C4CCCO4)nnc3s2)C1 (configuration not stated) | -9.64 |
| O=C1NCCN(C(=O)c2cn3ccsc3n2)C1c1cccc(F)c1 (configuration not stated) | 25.9 |
| Cc1cc(C)n(-c2ccccc2NC(=O)NCCS(=O)(=O)CC(C)C)n1 | -8.6 |
| COc1cc(NC(=O)c2ccc(CN3CC[C@H](O)C3)cc2)cc(OC)c1 | -10.7 |

| Compound | cytotoxicity at 70.5 h [%] |
| --- | --- |
| Cc1nn(-c2ccccc2)c(C)c1-c1ccnc(N2CCC(O)CC2)n1 | -5.36 |
| CC(C)c1csc(C(=O)N2CCCC(Cn3cc(CO)nn3)C2)n1 (configuration not stated) | -0.0869 |
| O=C(NC1CCCCC1)N1C[C@H]2CN(c3cnccn3)C[C@@]2(C(=O)O)C1 | -14.9 |
| CN(Cc1ccc(C(=O)Nc2sccc2C#N)cc1)Cc1ccno1 | -5.41 |
| O=C(c1ccc(C2CCNC2)cc1)N1CCC(N2CCC(O)CC2)CC1 (configuration not stated) | 3.75 |
| COc1ccccc1CNC(=O)CN(C)C(C)c1ccon1 (configuration not stated) | -18.5 |
| Cc1cccc(C(C(=O)N(C)Cc2ccco2)N(C)C)c1 (configuration not stated) | 2.2 |
| CCc1ncc(CN2CCC3(CCCN(CC4CCC4)C3)C2)cn1 (configuration not stated) | -6.02 |
| CN(CCn1ccc2ccccc21)C(=O)Cc1n[nH]c(=O)[nH]1 | 1.76 |
| Cc1cnn(CCCNC(=O)CCC2CCCCN2C)c1 (configuration not stated) | -13.1 |
| COc1ccc(OC)c(CNCc2ccnc(N3CCCCC3)c2)c1 | -8.18 |
| COc1cc(CNCc2ccnc(N3CCCCC3)c2)cc(OC)c1 | 4.65 |
| CCS(=O)(=O)N1CCC(NC(=O)c2cc(C(C)C)ccc2O)CC1 | 1.02 |
| CC(C)CCN(C)Cc1nc2c(cnn2C)c(=O)[nH]1 | -5.91 |
| Cc1ccsc1CN(Cc1nc2c(cnn2C)c(=O)[nH]1)C(C)C | 2.45 |
| Cc1cccc(OCCC(=O)NCC2CN(C)CCO2)c1C (configuration not stated) | -5.5 |
| CN1CCOC(CNC(=O)CCCOc2cccc(F)c2)C1 (configuration not stated) | 0.774 |
| CC(C)c1nn(C)c(N2CCOCC2)c1CNCCC(=O)N(C)C | 22.2 |
| CCc1nnc2n1CCN(C(C(=O)NC1CC1)c1ccccc1)C2 (configuration not stated) | -7.08 |
| Cc1nnc2n1CCN(C(C(=O)N1CCCCC1)c1ccccc1)C2 (configuration not stated) | -1.38 |
| Cc1ccc(-c2nc(CNC3CCc4ncnn4C3)cs2)cc1 (configuration not stated) | 2.93 |
| Cc1nc2n(n1)CC(NCc1csc(-c3ccsc3)n1)CC2 (configuration not stated) | -8.64 |
| Cc1c(F)cc(C(=O)O)cc1S(=O)(=O)Nc1ccccc1 | 3.77 |

| Compound | cytotoxicity at 70.5 h [%] |
| --- | --- |
| O=C(CCOc1ccccc1)N1CCCC(n2cncn2)C1 (configuration not stated) | 2.02 |
| Cc1ccc(CC(=O)N2CCc3nnc(N(C)C)cc3C2)s1 | -4.06 |
| O=C(NC1CC1)C(c1ccccc1)N1CCn2c(nnc2C2CC2)C1 (configuration not stated) | 1.07 |
| COCc1nc(C(=O)NS(=O)(=O)c2ccc(Cl)cc2F)cs1 | -3.46 |
| NC(=O)c1ccc(OCC(=O)NS(=O)(=O)c2ccc3c(c2)CCC3)cc1 | -2.69 |
| CC(C)(O)CN1CCN(C(=O)c2ccc(Cl)c3cccnc23)CC1 | 26 |
| O=C(Nc1cccc(F)c1)C1CCCN1c1nccs1 (configuration not stated) | 1.52 |
| N#Cc1cccc(NC(=O)C2CCCN2c2nccs2)c1 (configuration not stated) | -2.24 |
| CC1CN(C(=O)c2cccc(OCc3cscn3)c2)CCO1 (configuration not stated) | -1.66 |
| CC(=O)N1CCN(C(=O)c2cccc(OCc3cscn3)c2)CC1 | 0.43 |
| CCC1CN(C(=O)c2cccc(OCc3cscn3)c2)CCO1 (configuration not stated) | -5.57 |
| O=C(NCCCn1ccnc1)N1CCCC1c1ccsc1 (configuration not stated) | 24.9 |
| COc1ccc(NC(=O)N(CC2CCOC2)C2CC2)cn1 (configuration not stated) | -6.27 |
| CCN(CC1CCOC1)C(=O)Nc1ccc(N2CCCCC2)nc1 (configuration not stated) | -1.47 |
| NC(=O)C1CCCN(C(=O)c2cccc(OCc3cscn3)c2)C1 (configuration not stated) | -9.59 |
| Cc1cc(CN(C)C(=O)NC2CCN(C3CC3)CC2)no1 | -3 |
| Cc1noc(C)c1CN(C)C(=O)NC1CCCN(S(C)(=O)=O)C1 (configuration not stated) | 0.729 |
| Cc1ccc(C(=O)N2CCCN(Cc3cccs3)CC2)c(=O)[nH]1 | -0.458 |
| O=C(c1cccnc1O)N1CCN(CCc2cccs2)CC1 | -6.9 |
| COc1cc(CNCc2ccnc(N3CCCC3)c2)cc(OC)c1 | 1.37 |
